{"source": "patent US11484607B2", "about": "“PSMA-targeted NIR dyes and their uses” (On Target Laboratories, LLC, priority 2015, dated 2022)", "key": {"22Rv1 orthotopic tumors": {"test_system": "22Rv1 orthotopic tumors", "test": "OTL78 imaging of orthotopic prostate tumors, AMI image system", "assay_type": "in vivo, SCID mice", "settings": "10 nmol, 2 h", "method": "For orthotopic tumors, 2×10^5 22Rv1 cells/mouse in 10% high concentrated (HC) matrigel with RPMI1640 medium were surgically implanted in the prostate of seven-week-old male SCID mice. Briefly, seven-week-old male SCID mice were given 1-5% isoflurane for anesthesia and subcutaneous injection of 5 mg/kg meloxicam preoperatively for analgesia. The mice were placed dorsal side up and washed above the prostate with a chlorhexidine scrub to ensure a sterile area for incision. After an insertion was made using scalpel through the skin, the peritoneal lining was lifted to make a small incision using a scissor and widened using forceps. Dorsal lobes were exteriorized and gently stabilized with a wet (PBS) cotton swab. 22Rv1 cells (in 10 μL of 10% HC-matrigel) were injected the prostate using a 28-gage needle. After placing the prostate back into the peritoneum, the abdominal wall was sutured, the body wall was closed using 3-0 or 4-0 vicryl and the skin was closed using staples. Animals were monitored until use them for the studies. After one month, the animals were administered with OTL78 (10 nmol in 100 μL saline per mouse), euthanized after 2 h by CO2 asphyxiation, and imaged using AMI image system."}, "[1]": {"test": "Safety study of OTL78 (body weight, histopathology, clinical pathology)", "protocol": "Safety Study: Seven-week-old healthy male Balb/c (5 mice/group) were administered with 6 μmol of freshly prepared OTL78 or saline dissolved in 100 μL of saline via tail vein injection on day zero. Body weights and clinical observations were monitored prior to dosing and daily thereafter from day zero to 14.\nFor immunohistopathology (IHC) studies, the animals were euthanized by CO2 asphyxiation on the day 14 and selected tissues (brain, heart, lung, liver, spleen, kidney, stomach, small intestine, large intestine, muscle, and skin) were collected into vials containing 4% formalin. Formalin fixed tissues were sectioned into 10 μm thick sections and mounted onto Superfrost Plus™ slides (Fisher Scientific, Pittsburgh Pa.). After staining the slides with H&E, IHC analysis of the tissues was conducted to determine to the toxicity of OTL78.\nFor clinical pathology studies, the animals were euthanized by CO2 asphyxiation on the day 14 and blood was collected to heparin by cardiac punch and blood work analysis was conducted at Purdue clinical pathology lab."}, "PC3 tumor xenografts": {"test_system": "PC3 tumor xenografts", "test": "OTL78 whole body imaging and tissue biodistribution, subcutaneous tumor", "assay_type": "in vivo, mice", "settings": "10 nmol, 2 h", "protocol": "(§1) Whole body Imaging & Tissue biodistribution: Seven-week-old male nu/nu mice were inoculated subcutaneously with 5.0×106 22Rv1, LNCaP, PC3 or A549 cells/mouse in 50% high concentrated matrigel with RPMI1640 medium on the shoulder. Growth of the tumors was measured in perpendicular directions every 2 days using a caliper (body weights were monitored on the same schedule), and the volumes of the tumors were calculated as 0.5×L×W2 (L=longest axis and W=axis perpendicular to L in millimeters). Once tumors reached approximately 300-400 mm3 in volume, animals (3-5 mice/group) were intravenously injected with appropriate dose of OTL78 in saline.\n(§2) For whole body imaging and biodistribution studies, animals were euthanized after 2 h of administration of OTL78 by CO2 asphyxiation. For time dependent studies, animals were imaged under anesthesia using isoflurane. Imaging experiments were then performed using IVIS or AMI image systems. Following whole body imaging, animals were dissected and selected tissues were analyzed for fluorescence activity using IVIS or AMI image system and ROI of the tissues were calculated using Living Image 4.0 software or AMIView Image Analysis Software."}, "[2]": {"test": "Concentration dependent UV spectrometric study of higher order aggregates", "assay_type": "physicochemical", "settings": "75 μM in saline", "method": "Possible OTL78-related hypersensitivity in human was next examined using basophil activation assay. Drug related hypersensitivity is mainly due to immune response caused by cross-linking of immunoglobulin E (IgE) expressed on mast cells and basophils (FIG. 47D) resulting in activation and subsequent degranulation to release vasoactive amines, prostaglandins, and cytokines (29). Since cross-linking of IgE can be due to aggregates, concentration dependent UV spectrometric studies were conducted to determine higher order aggregates of OTL78."}, "22Rv1 tumor xenografts [3]": {"test_system": "22Rv1 tumor xenografts", "protocol": "as §1, §2"}, "PSMA on 22Rv1 cells": {"molecular_target": "T1, PSMA on 22Rv1 cells (Homo sapiens, UniProt Q04609)", "T1 construct": "host or cells: 22Rv1 human prostate cancer cells", "T1 sequence (Q04609 whole entry)": "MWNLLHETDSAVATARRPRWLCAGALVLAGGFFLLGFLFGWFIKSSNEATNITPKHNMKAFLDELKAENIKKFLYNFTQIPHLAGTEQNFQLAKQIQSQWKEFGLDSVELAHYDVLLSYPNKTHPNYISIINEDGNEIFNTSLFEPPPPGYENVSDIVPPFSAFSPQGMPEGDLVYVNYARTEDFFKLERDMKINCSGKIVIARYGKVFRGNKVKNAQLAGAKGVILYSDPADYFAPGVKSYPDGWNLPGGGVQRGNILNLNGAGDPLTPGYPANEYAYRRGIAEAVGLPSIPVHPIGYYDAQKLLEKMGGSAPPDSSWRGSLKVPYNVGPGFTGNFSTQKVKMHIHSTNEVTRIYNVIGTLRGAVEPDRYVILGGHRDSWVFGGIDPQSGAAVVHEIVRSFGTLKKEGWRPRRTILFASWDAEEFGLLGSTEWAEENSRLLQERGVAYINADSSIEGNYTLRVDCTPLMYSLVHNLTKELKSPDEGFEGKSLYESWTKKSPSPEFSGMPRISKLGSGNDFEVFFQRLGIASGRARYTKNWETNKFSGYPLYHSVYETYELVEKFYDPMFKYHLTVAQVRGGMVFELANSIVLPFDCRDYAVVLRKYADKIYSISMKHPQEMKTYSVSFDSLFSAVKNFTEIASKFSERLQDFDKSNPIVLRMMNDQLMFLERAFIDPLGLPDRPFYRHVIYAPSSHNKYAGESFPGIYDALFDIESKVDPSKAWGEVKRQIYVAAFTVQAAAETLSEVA", "test": "OTL78 relative affinity (IC50) by competition with DUPA-FITC", "assay_type": "binding", "settings": "100 nM DUPA-FITC, 30 min at 4° C., flow cytometer; read-out: IC50 competing with DUPA-FITC", "method": "In vitro binding: For OTL78 relative affinity (IC50), 22Rv1 or PC3 cells were plated into a T75 flask and allowed to form a monolayer over 48 h. After trypsin digestion, released cells were transferred into centrifuge tubes (1×10^6 cells/tube) and centrifuged. Spent medium in each tube was replaced with 100 nM DUPA-FITC in the presence of increasing concentration (0.001 nM-10 μM) of OTL78 in fresh medium (0.5 mL). After incubating for 30 min at 4° C., cells were rinsed with culture medium (2×1.0 mL) and saline (1×1.0 mL) to remove any unbound DUPA-FITC. Cells were then re-suspended in saline (0.5 mL) and cell bound fluorescence was quantified using a flow cytometer. The relative affinities were calculated using a plot of percent cell bound fluorescence versus the log concentration of OTL78 using GraphPad Prism 6."}, "22Rv1 tumor xenografts [4]": {"test_system": "22Rv1 tumor xenografts", "test": "Fluorescence-guided surgery of prostate tumors with OTL78", "assay_type": "in vivo, mice", "method": "Growth of the tumors was measured as previously mentioned. After one month, the animals were mixed and divided into 2 groups (n=5 mice/group). Two hours after administering OTL78 (10 nmol in 100 μL saline per mouse), animals were given 1-5% isoflurane for anesthesia and imaged using AMI image system. After an insertion was made using scalpel through the skin, surgical removal of the tumors was performed either following conventional technique (e.g. visualization under white light or palpation) or with the aid of fluorescence guidance (FGS: debulking of visible tumors under conventional method followed by resection of residual fluorescence tissues under image-guided method). After the surgery, the skin was closed using staples and imaged the mice using AMI image system. After imaging, the residual fluorescent tissues from selected mice of conventional surgery group and tissues samples from the tumor beds of selected mice of FGS group were submit for pathological (IHC) analysis. Response to surgical treatment was monitored for over 30 days by imaging using AMI image system 2 h after injecting OTL78 (10 nmol/mouse) and by measuring the growth of the tumor volume using a caliper. Any animal with tumor volume ≥1000 mm3 were euthanized. Tumor-free survival of the mice was documented as % survival vs. time using GraphPad Prism 6. IHC studies were done as explained bellow in the Safety Studies."}, "basophils": {"test_system": "basophils", "test": "Basophil activation test (Flow CAST) in human blood samples", "assay_type": "cell-based", "method": "Tolerability Studies: The blood samples were collected into hirudin tubes and used within an hour of collection. For each donor, 4 different tubes were prepared for allergen, positive controls, and negative control. Samples were analyzed using Flow CAST® high sensitivity Basophil Activation Test (BAT). Briefly, stimulation buffer (100 μL, background) or anti-FcεER antibody (100 μL) or fMLP (100 μL) or OTL78 (75 μM in 100 μL of saline) was added to tubes containing stimulation buffer (200 μL). 100 μL of blood was added to each tube and mixed gently. After adding staining reagent (40 μL) containing anti-CD63-CD203c-PE-DY647 and anti-CCR3-PE, each tube was mixed gently and incubated for 15 minutes at 37° C. Lysing reagent (2 mL) was added to each tube, mixed gently, incubated for 5-10 minutes at room temperature, and centrifuged for 5 minutes at 500×g. The supernatant was discarded and the cells were re-suspended in wash buffer (900 μL) and analyzed using flow cytometry. CD63-CD203c-PE-DY647+/CCR3-PE+ cell population considered as the activated basophils."}, "[5]": {"settings": "0.3-120 nmol/mouse tested, 2 hour time point, IVIS"}}}
{"smiles": "CC1(C)C(/C=C/C2=C(Oc3ccc(C[C@H](NC(=O)[C@H](Cc4ccccc4)NC(=O)CCOCCOCCNC(=O)CC[C@H](NC(=O)N[C@@H](CCC(=O)O)C(=O)O)C(=O)O)C(=O)O)cc3)C(=C/C=C3/N(CCCCS(=O)(=O)O)c4ccc(S(=O)(=O)O)cc4C3(C)C)/CCC2)=[N+](CCCCS(=O)(=O)[O-])c2ccc(S(=O)(=O)O)cc21", "note": "[OTL78]", "values": [{"measurement": "accumulation in orthotopic prostate tumors", "setting": "22Rv1 orthotopic tumors", "value": "mainly accumulated in prostate tumors with no fluorescence observed in other tissues except kidneys"}, {"measurement": "detection of local regional metastasis in seminal vesicles", "setting": "22Rv1 orthotopic tumors; in the presence of primary tumor", "value": "able to detect"}, {"measurement": "body weight change over the course of the study", "setting": "[1]; 6 μmol/mouse (600× of normal dose), day zero to 14", "value": "< 5", "unit": "% increase"}, {"measurement": "clinical pathology analysis on blood samples", "setting": "[1]; 6 μmol/mouse, day 14", "value": "No noticeable toxicities"}, {"measurement": "pathological changes in H&E staining of tissues", "setting": "[1]; 6 μmol/mouse, day 14", "value": "no obvious pathological changers"}, {"measurement": "fluorescence intensity of PC3 tumors compared to 22Rv1 tumors", "setting": "PC3 tumor xenografts", "value": "~6", "unit": "folds less"}, {"measurement": "higher order aggregates (UV spectra), in words", "setting": "[2]", "value": "no noticeable higher order aggregates"}, {"measurement": "accumulation in 22Rv1 tumors", "setting": "22Rv1 tumor xenografts [3]; 10 nmol, 2 h", "value": "accumulated predominantly"}, {"measurement": "dose of best TBR", "setting": "22Rv1 tumor xenografts [3]; [5]", "value": "3-10 nmol/mouse"}, {"measurement": "dose range providing excellent TBR", "setting": "22Rv1 tumor xenografts [3]; [5]", "value": "1-30 nmol per mouse"}, {"measurement": "time for skin uptake to clear", "setting": "22Rv1 tumor xenografts [3]; mouse, in vivo", "value": "4 to 5", "unit": "h"}, {"measurement": "IC50", "setting": "PSMA on 22Rv1 cells", "value": 7, "unit": "nM"}, {"measurement": "time to localize 22Rv1 tumors with high contrast", "setting": "22Rv1 tumor xenografts [4]; 10 nmol, preoperative images", "value": "≤ 2", "unit": "h"}, {"measurement": "postoperative residual fluorescence in the tumor bed, FGS cohorts", "setting": "22Rv1 tumor xenografts [4]; 10 nmol, surgery at 2 h", "value": "no significant fluorescence"}, {"measurement": "biochemical recurrence (BCR), FGS cohort", "setting": "22Rv1 tumor xenografts [4]; monitored for over a month", "value": "no sign of BCR"}, {"measurement": "survival, FGS cohorts", "setting": "22Rv1 tumor xenografts [4]; over 30 days", "value": "survived during the study"}, {"measurement": "residual tumors in tumor margin/bed tissues, FGS cohorts", "setting": "22Rv1 tumor xenografts [4]; pathological analysis", "value": "no residual tumors"}, {"measurement": "stimulated index", "setting": "basophils; FIG. 47E, ≥2 considered positive response", "value": 1}, {"measurement": "Percent of basophile activation, Avg", "setting": "basophils; average of 3 healthy subjects", "value": 2.8, "unit": "%"}, {"measurement": "Percent of basophile activation, Subject 1", "setting": "basophils; healthy subjects, OTL78 75 μM", "value": 2.64, "unit": "%"}, {"measurement": "Percent of basophile activation, Subject 2", "setting": "basophils; healthy subjects, OTL78 75 μM", "value": 2.67, "unit": "%"}, {"measurement": "Percent of basophile activation, Subject 3", "setting": "basophils; healthy subjects, OTL78 75 μM", "value": 3.14, "unit": "%"}, {"measurement": "SI = Avg/background", "setting": "basophils; stimulation index, ≥2 considered positive response", "value": 1.1}]}
